According to US10925885B2, “Thyromimetics for the treatment of fatty liver diseases” (Metabasis Therapeutics, Inc., priority 2005, dated 2021):
Entries after “also recorded” stand apart in the source; their conditions may differ.

How the values were obtained:
liver triglycerides = assay: Liver triglycerides, chronic exposure in ob/ob mice; format: in vivo; settings: for Liver Trigs: CMC suspension
Experimental: Sections of liver were removed and frozen. Liver triglycerides were analyzed following lipid extraction by the Bligh Dyer method (Bligh and Dyer, Can. J. Med. Sci. 37(8):911-7 (1959), incorporated herein by reference). Total triglycerides were analyzed in the liver extracts by an enzymatic assay (Thermo Electron Corporation). Total lipid was normalized to initial liver weight and triglyceride content was normalized to liver weight mGPDH activity was analyzed in isolated mitochondria using 2-(4-iodophenyl)-3-(4-nitrophenyl)-5-phenyl tetrazolium chloride as the terminal electron acceptor (Gardner R S, Analytical Biochemistry 59:272 (1974)). Commercially available GPDH was used in each assay as a standard (Sigma, St. Louis, Mo.).
The purpose of these studies was to compare the difference in efficacy to clear liver triglyceride content between Compound cis-13-1 and T3 in ob/ob mice.
(§1) Methods: ob/ob mice were maintained on a standard diet. Compound cis-13-1 was administered at doses of 3, 10 and 30 mg/kg/d orally in a CMC suspension. T3, 100 nmole/kg/d, was administered as an aqueous solution subcutaneously. Liver triglycerides were analyzed as described in example A. Epididymal fat pads were removed and weighed. Clinical chemistry analysis was performed by LabCorp (San Diego, Calif.).

[1] = Epididymal fat pad weight in ob/ob mice; format: in vivo; settings: for EFP weight: CMC suspension
Experimental: as §1

ALT = ALT levels (clinical chemistry) in ob/ob mice; format: in vivo; settings: 9 weeks of treatment, from 634 IU/L in the vehicle treated group
Experimental: as §1

hepatic steatosis [2] = assay: Hepatic steatosis measured chemically and histologically in ob/ob mice; format: in vivo; settings: oral administration of cis-13-1
Experimental: as §1

hepatic steatosis [3] = assay: Liver steatosis (H&E sections) in ZDF rats; format: in vivo, Zucker diabetic fatty (ZDF) rats; settings: oral, CMC suspension
Experimental: (§2) Methods: ZDF rats were maintained on a standard diet (5008). Compounds cis-13-1 or 18 were administered orally at the indicated doses using a CMC suspension. Liver steatosis was analyzed visually following H&E staining of paraffin embedded liver sections. TSH was measured using a rodent specific kit (Amersham Biosciences). At the end of the experiment, the left ventricle was cannulated with a high fidelity catheter-tip transducer (Millar) via the right carotid artery. Left ventricle pressure, its first derivative (LV dP/dt), lead I ECG, and heart rate triggered off the ECG waveform, were recorded.

TSH [4] = assay: TSH in ZDF rats; format: in vivo, Zucker diabetic fatty (ZDF) rats; settings: 4 weeks of treatment
Experimental: as §2

[5] = Heart rate and cardiovascular parameters in ZDF rats; format: in vivo, Zucker diabetic fatty (ZDF) rats; settings: end of experiment
Experimental: as §2

hepatic steatosis [6] = assay: Liver steatosis (H&E sections) in DIO mice; format: in vivo, diet induced obesity (DIO) mice; settings: DIO mice (60% Kcal from fat diet); 30 mg/kg/d orally, CMC suspension, 10 weeks
Experimental: (§3) The purpose of these studies was to compare the ability of Compound cis-13-1 to clear liver steatosis in diet induced obesity (DIO) mice. Methods: […] mice were maintained on a 60% Kcal from fat diet. Compound cis-13-1 was administered at doses of 30 mg/kg/d orally in a CMC suspension for 10 weeks. Liver steatosis was analyzed visually following H&E staining of paraffin embedded liver sections. TSH was measured using a rodent specific kit (Amersham Biosciences). Heart rates were measured using a Lead I ECG with the heart rate calculated from the ECG waveform.

mitochondria = assay: Ultrastructure of mitochondria in DIO mice; format: in vivo, diet induced obesity (DIO) mice; settings: 30 mg/kg/d orally, 10 weeks
Experimental: as §3, with “Methods:” for “The purpose of these studies was to compare the ability of Compound cis-13-1 to clear liver steatosis in diet induced obesity (DIO) mice. Methods:”

TSH [7] = assay: TSH in DIO mice; format: in vivo, diet induced obesity (DIO) mice; settings: 10 weeks of treatment
Experimental: as §3, with “Methods:” for “The purpose of these studies was to compare the ability of Compound cis-13-1 to clear liver steatosis in diet induced obesity (DIO) mice. Methods:”

[8] = Heart rate (Lead I ECG) in DIO mice; format: in vivo, diet induced obesity (DIO) mice; settings: 30 mg/kg/d orally, 10 weeks
Experimental: as §3, with “Methods:” for “The purpose of these studies was to compare the ability of Compound cis-13-1 to clear liver steatosis in diet induced obesity (DIO) mice. Methods:”

CPT-1 = assay: Liver gene expression (real-time PCR) in normal mice; format: in vivo; settings: normal C57Bl6 mice; 30 mg/kg/d orally, CMC suspension, 1 week; liver mRNA
Experimental: The purpose of these studies was to compare the ability of Compound cis-13-1 to change liver gene expression.
Methods: C57Bl6 mice were maintained on a normal rodent diet. Compound cis-13-1 was administered at doses of 30 mg/kg/d orally in a CMC suspension for 1 week. Changes in levels of mRNA for liver and heart genes are analyzed using reverse transcriptase followed by real-time PCR analysis. The analysis is performed using an iCycler instrument (Biorad) and appropriate primers by means of standard methodology (e.g., Schwab D A et al. Life Sciences 66:1683-94(2000)). The amounts of mRNA are normalized to an internal control, typically, cyclophilin.

## Cc1cc(OC[P@@]2(=O)OCC[C@@H](c3cccc(Cl)c3)O2)cc(C)c1Cc1ccc(O)c(C(C)C)c1 [Compound cis-13-1]
Liver triglycerides; 3 mg/kg/d orally
  Liver Trigs: 87 ± 6 mg/g
Liver triglycerides; 10 mg/kg/d orally
  Liver Trigs: 66 ± 10 mg/g
Liver triglycerides; 30 mg/kg/d orally
  Liver Trigs: 59 ± 6 mg/g
Liver triglycerides; cis-13-1 oral 3, 10, 30 mg/kg/d, T3 100 nmole/kg/d s.c.
  Effect on liver (hepatic) triglyceride content, in words: decreased hepatic triglyceride content at 10 and 30 mg/kg/d
[1]; 3 mg/kg/d orally
  EFP weight: 4.4 ± 0.1 g
[1]; 10 mg/kg/d orally
  EFP weight: 4.7 ± 0.1 g
[1]; 30 mg/kg/d orally
  EFP weight: 4.4 ± 0.1 g
[1]; cis-13-1 oral, T3 100 nmole/kg/d s.c.
  Effect on epididymal fat pad (EFP) weight, in words: did not decrease epididymal fat pad (EFP) weight; also recorded: no effect on epididymal fat pad weight
ALT
  Decrease in ALT levels: > 50%
Hepatic steatosis [2]
  Effect on hepatic steatosis measured chemically and histologically, in words: decreased hepatic steatosis
Hepatic steatosis [3]
  Effect on hepatic steatosis (visual, H&E), in words: visually decreased hepatic steatosis compared to control
TSH [4]
  Effect on TSH, in words: No significant decreases in TSH
[5]
  Heart rates and other cardiovascular parameters, change from vehicle, in words: no significant changes from vehicle in any parameter
Hepatic steatosis [6]
  Effect on hepatic steatosis (visual, H&E), in words: decreased hepatic steatosis
mitochondria
  Ultrastructure of mitochondria, in words: no abnormalities in the ultrastructure of mitochondria
TSH [7]
  Effect on TSH, in words: No significant decreases in TSH
[8]
  Change in heart rate, in words: no significant change in heart rate
CPT-1
  Increase in CPT-1 expression: 3.5 fold
